Reference: patent US9790169B2, “IDO inhibitors” (BRISTOL-MYERS SQUIBB COMPANY, priority 2015, dated 2017)

Target: human IDO1 (Homo sapiens, UniProt P14902)
Assay: Assessment of human IDO-1 inhibitory activity in HEK cells (human IDO1/HEK293 cells, kynurenine read-out with Ehrlich reagent, absorbance 490 nm)
Format: cell-based
Design: expressed in transfected cells
Conditions: HEK Human IDO-1 cellular assay
In short: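 Kynurenine output from stably IDO1-transfected HEK293 cells (10,000/well, phenol red-free RPMI, 10% FBS) after 20 h compound exposure at 37 °C. The reaction was stopped with 0.2% TCA and heated 30 min at 50 °C, then the supernatant was mixed with Ehrlich reagent and read at 490 nm. IC50 was set against DMSO and a 500 nM reference standard as 0 and 100% inhibition.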

Chain of human IDO1 (P14902 whole entry): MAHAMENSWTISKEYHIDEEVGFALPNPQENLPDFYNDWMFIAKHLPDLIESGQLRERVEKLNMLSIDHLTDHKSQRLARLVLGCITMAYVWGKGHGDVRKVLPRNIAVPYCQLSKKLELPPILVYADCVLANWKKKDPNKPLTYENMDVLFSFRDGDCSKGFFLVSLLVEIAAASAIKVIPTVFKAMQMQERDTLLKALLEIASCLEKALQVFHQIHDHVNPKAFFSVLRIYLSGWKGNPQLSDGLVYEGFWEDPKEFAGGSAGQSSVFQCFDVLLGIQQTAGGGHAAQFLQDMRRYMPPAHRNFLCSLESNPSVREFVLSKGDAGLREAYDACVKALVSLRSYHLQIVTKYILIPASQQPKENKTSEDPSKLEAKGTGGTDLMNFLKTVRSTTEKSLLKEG

Compound	IC50
CCOc1ncc(Nc2cc(C(CC)CC(=O)O)ccc2N2C[C@@H](C)O[C@@H](C)C2)cn1 (single isomer, unassigned) [Example 756]	> 50 nM
CCN(c1ccc(C(CC(=O)O)c2ccccc2)cc1NC(=O)Nc1ccc(OC)cc1F)C1CCOCC1 (single isomer, unassigned) [Example 586, 3-(4-(ethyl(tetrahydro-2H-pyran-4-yl)amino)-3-(3-(2-fluoro-4-methoxyphenyl)ureido)phenyl)-3-phenylpropanoic acid]	> 50 nM
CCOc1ccc(NC(=O)Nc2cc([C@@H](CC)CC(=O)O)ccc2N(CC(C)C)C2CCS(=O)(=O)CC2)cc1 (single isomer, unassigned) [Example 217]	> 50 nM
CCC(CC(=O)O)c1ccc(N(CC2CC2)C(C)C)c(Nc2ccc3nc(C)sc3c2)c1 (single isomer, unassigned) [Example 716, 3-(4-((Cyclopropylmethyl)(isopropyl)amino)-3-((2-methylbenzo[d]thiazol-6-yl)amino)phenyl)pentanoic acid]	> 50 nM
CCOc1ccc(NC(=O)Nc2cc(C(CC)CC(=O)O)ccc2N2CCC[C@H]2C(C)(C)O)cc1 (single isomer, unassigned) [Example 826]	> 50 nM
CCOc1ncc(Nc2cc(C(C)(C)CC(=O)O)ccc2N2C[C@@H](C)O[C@@H](C)C2)cn1 [Example 736, 3-(4-((2S,6R)-2,6-dimethylmorpholino)-3-((2-ethoxypyrimidin-5-yl)amino)phenyl)-3-methylbutanoic acid]	> 50 nM
COCC(CC(=O)O)c1ccc(N(CC2CC2)C2CCOCC2)c(NC(=O)Nc2ccc(Cl)cc2F)c1 (single isomer, unassigned) [Example 678, 3-(3-(3-(4-Chloro-2-fluorophenyl)ureido)-4-((cyclopropylmethyl)(tetrahydro-2H-pyran-4-yl)amino)phenyl)-4-methoxybutanoic acid]	> 50 nM
CC[C@@H](CC(=O)O)c1ccc(N2CCOC[C@@H]2C(C)C)c(NC(=O)Nc2ccc(OC)cc2F)c1 (single isomer, unassigned) [Example 76]	> 50 nM
CC[C@H](CC(=O)O)c1ccc(N(CC(C)(C)O)C2CCOCC2)c(Nc2ccc(Cl)c(OCC(F)(F)F)c2)c1 (single isomer, unassigned) [Example 205]	< 50 nM
CCCN(c1ccc([C@@H](COC)CC(=O)O)cc1Nc1ccc2c(c1)OC(F)(F)O2)C1CCOCC1 (single isomer, unassigned) [Example 561]	> 50 nM
CCOc1ncc(Nc2cc([C@@H](CC)CC(=O)O)ccc2N(CC(C)(C)O)C2CCOCC2)cn1 (single isomer, unassigned) [Example 197]	> 50 nM
CC[C@@H](CC(=O)O)c1ccc(N2CCC[C@H]2C(C)(C)O)c(NC(=O)Nc2ccc(C)cc2)c1 (single isomer, unassigned) [Example 769]	> 50 nM
CC[C@H](CC(=O)O)c1ccc(N2CCOC[C@@H]2C(C)C)c(NC(=O)Nc2ccc(OC)cc2F)c1 (single isomer, unassigned) [Example 87]	> 50 nM
CCN(c1ccc(C(C)CC(=O)O)cc1Nc1ccc2nc(C)sc2c1)C1CCOCC1 (single isomer, unassigned) [Example 617, 3-(4-(ethyl(tetrahydro-2H-pyran-4-yl)amino)-3-((2-methylbenzo[d]thiazol-6-yl)amino)phenyl)butanoic acid]	< 50 nM
CCC(CC(=O)O)c1ccc(N2CCOC[C@H]2C(C)C)c(NC(=O)Nc2ccc(OC)cc2F)c1 (single isomer, unassigned) [Example 897]	> 50 nM

More lines, now with the values ahead:

IC50	Compound
< 5 nM	COCC(CC(=O)O)c1ccc(N(CC2CC2)C2CCOCC2)c(Nc2ccc(C#N)cc2)c1 (single isomer, unassigned) [Example 691, 3-(3-((4-cyanophenyl)amino)-4-((cyclopropylmethyl) (tetrahydro-2H-pyran-4-yl)amino)phenyl)-4-methoxybutanoic acid]
< 5 nM	CCC(CC(=O)O)c1ccc(N(CC2CC2)C2CCOCC2)c(NC(=O)Nc2ccc(Cl)cc2F)c1 (single isomer, unassigned) [Example 696, 3-(3-(3-(4-Chloro-2-fluorophenyl)ureido)-4-((cyclopropylmethyl)(tetrahydro-2H-pyran-4-yl)amino)phenyl)pentanoic acid]
< 5 nM	CCOc1ccc(NC(=O)Nc2cc(C(CC)CC(=O)O)c(F)cc2N(CC(C)C)C2CCCCC2)cc1 (single isomer, unassigned) [Example 1108, 3-(4-(Cyclohexyl(isobutyl)amino)-5-(3-(4-ethoxyphenyl)ureido)-2-fluorophenyl)pentanoic acid]
< 5 nM	CC[C@H](CC(=O)O)c1ccc(N(CC2CC2)CC(C)(C)O)c(Nc2ccc(C#N)cc2)c1 (single isomer, unassigned) [Example 272]
< 5 nM	CCOc1ccc(CC(=O)Nc2cc(C(CC(=O)O)C3CC3)ccc2N(CC(C)C)C2CCCCC2)cc1 (single isomer, unassigned) [Example 1248, 3-(4-(Cyclohexyl(isobutyl)amino)-3-(2-(4-ethoxyphenyl)acetamido)phenyl)-3-cyclopropylpropanoic acid]
< 5 nM	CCC(CC(=O)O)c1ccc(N(CC(C)C)CC(C)C)c(NC(=O)Cc2ccc(C)cc2)c1 (single isomer, unassigned) [Example 1103 E1, 3-(4-(Diisobutylamino)-3-(2-(p-tolyl)acetamido)phenyl)pentanoic acid]
< 50 nM	CCOc1ccc(NC(=O)Nc2cc(C(COC)CC(=O)O)cc(F)c2N(CC(C)C)CC(C)C)cc1 (single isomer, unassigned) [Example 1179, 3-(4-(Diisobutylamino)-3-(3-(4-ethoxyphenyl)ureido)-5-fluorophenyl)-4-methoxybutanoic acid]
< 5 nM	CCC(CC(=O)O)c1cc(F)c(N(CC(C)C)CC(C)C)c(NC(=O)Cc2ccc(C)cc2F)c1 (racemic) [Example 1083]
< 5 nM	CCC(CC(=O)O)c1cc(NC(=O)Nc2ccc(C)cc2)c(N(CC(C)C)CC(C)C)cc1F (racemic) [Example 1128, (±)-3-(4-(Diisobutylamino)-2-fluoro-5-(3-(p-tolyl)ureido)phenyl)pentanoic acid]
< 5 nM	CCC(CC(=O)O)c1ccc(N(CC(C)C)C2CCCCC2)c(Nc2ccc(Cl)c(F)c2)c1 (single isomer, unassigned) [Example 310, 3-(3-((4-chloro-3-fluorophenyl)amino)-4-(cyclohexyl(isobutyl)amino)phenyl)pentanoic acid]
< 5 nM	CCC(CC(=O)O)c1ccc(N(CC(C)C)C2CCCCC2)c(Nc2ccc(C)cc2)c1 (single isomer, unassigned) [Example 304, 3-(4-(cyclohexyl(isobutyl)amino)-3-(p-tolylamino)phenyl)pentanoic acid]
< 5 nM	CCCN(c1ccc(C(CC)CC(=O)O)cc1NC(=O)Nc1ccc(OC)cc1F)C1CCOCC1 (racemic) [Example 609, 3-(3-(3-(2-Fluoro-4-methoxyphenyl)ureido)-4-(propyl(tetrahydro-2H-pyran-4-yl)amino)phenyl)pentanoic acid]
< 50 nM	CCC(CC(=O)O)c1ccc(N(CC2CC2)C2CCOCC2)c(NC(=O)Nc2ccc(C)cc2)c1 (single isomer, unassigned) [Example 695, 3-(4-((Cyclopropylmethyl)(tetrahydro-2H-pyran-4-yl)amino)-3-(3-(p-tolyl)ureido)phenyl)pentanoic acid]
< 5 nM	CCC(CC(=O)O)c1ccc(N(CC(C)C)CC(C)C)c(NC(=O)Cc2ccc(C)cc2)c1 (racemic) [Example 949, (+/−)-3-(4-(Diisobutylamino)-3-(2-(p-tolyl)acetamido)phenyl)pentanoic acid]
< 50 nM	CCc1cnc(Nc2cc([C@H](CC)CC(=O)O)ccc2N(CC(C)(C)O)C2CCCCC2)nc1 (single isomer, unassigned) [Example 241]
< 5 nM	CC[C@H](CC(=O)O)c1ccc(N(CC)C2CCOCC2)c(Nc2ccc(C#N)cc2)c1 (single isomer, unassigned) [Example 501]
< 50 nM	CCC(CC(=O)O)c1ccc(N(CC)C2CCCOC2)c(Nc2cnc(OC)nc2)c1 (single isomer, unassigned) [Example 71, 3-(4-(ethyl(tetrahydro-2H-pyran-3-yl)amino)-3-((2-methoxypyrimidin-5-yl)amino)phenyl)pentanoic acid]
< 50 nM	CCN(c1ccc(C(C)CC(=O)O)cc1Nc1cnc(OCC2CC2)nc1)C1CCOCC1 (single isomer, unassigned) [Example 614, 3-(3-((2-(cyclopropylmethoxy)pyrimidin-5-yl)amino)-4-(ethyl(tetrahydro-2H-pyran-4-yl)amino)phenyl)butanoic acid]
< 5 nM	CCC(CC(=O)O)c1cc(NC(=O)Nc2ccc3c(c2)OCO3)c(N(CC(C)C)C2CCCCC2)cc1F (single isomer, unassigned) [Example 1111, 3-(5-(3-(Benzo[d][1,3]dioxol-5-yl)ureido)-4-(cyclohexyl(isobutyl)amino)-2-fluorophenyl)pentanoic acid]
< 5 nM	CCCN(c1ccc([C@@H](CC)CC(=O)O)cc1Nc1ccc2nc(C)sc2c1)C1CCOCC1 (single isomer, unassigned) [Example 537]
< 5 nM	CCC(CC(=O)O)c1ccc(N(CC)C2CCS(=O)(=O)CC2)c(Nc2ccc(C#N)cc2)c1 (single isomer, unassigned) [Example 337, 3-(3-((4-cyanophenyl)amino)-4-((1,1-dioxidotetrahydro-2H-thiopyran-4-yl)(ethyl)amino)phenyl) pentanoic acid]
< 5 nM	CCN(c1ccc([C@@H](COC)CC(=O)O)cc1Nc1ccc(C)cc1)C1CCOCC1 (single isomer, unassigned) [Example 373]
< 5 nM	CCC(CC(=O)O)c1ccc(N(CC(C)C)CC(C)(C)O)c(Nc2ccc(Cl)cc2)c1 (racemic) [Example 453, 3-(3-((4-chlorophenyl)amino)-4-((2-hydroxy-2-methyl-propyl)(isobutyl)amino)phenyl) pentanoic acid]
